# Measured values published in patent publication US20250283017A1, “CLEANING COMPOSITIONS WITH ALKYLATED AMINO ACID SURFACTANTS HAVING ANTIMICROBIAL PROPERTIES” (THE CLOROX COMPANY, priority 2024, published 2025).
# Tests used:
# [1] = Stability of alkylated amino acid in cleaning composition 1 by HPLC-UV peak area vs t=0; assay type: physicochemical; settings: HPLC-UV peak area relative to t=0; for % at t = 4 w (70° F.): 4 weeks; for % at t = 4 w (70° F.) / % at t = 8 w (70° F.): 70° F. (21° C.); for % at t = 8 w (70° F.) / % at t = 8 w (100° F.): 8 weeks; for % at t = 8 w (100° F.): 100° F. (38° C.)
# Procedure: The cleaning compositions were prepared using the formulation previously described herein as cleaning composition 1, where each tested cleaning composition was comprised of the following: 0.3 wt % alkylated amino acid, 1 wt % surfactant (lauryl amine oxide), 0.5 wt % fragrance (butyl levulinate), and balance water (about 98.2 wt % water).
# The stability tests were tested for amino acid stability at different temperatures, 70° F. (21° C.) and 100° F. (38° C.), over the following periods of time: 4 weeks (4w) and 8 weeks (8w). The samples tested were subjected to HPLC-UV analysis, and the peak areas of the plotted data corresponding to the alkylated amino acids in the samples at 4w and 8w were compared with the reference (sample at t=0) to obtain a percentage value (based upon measured area at different times divided by measured area of reference, t=0).
# Percentage values of 70% or greater indicate adequate stability of the alkylated amino acids within the cleaning compositions over the 4 and 8 week time periods and at the given temperatures, where increasing percentage values (e.g., above 85%, 90% or even at or greater than 100%) indicate very stable cleaning compositions with little or no degradation of the alkylated amino acids within the compositions.
# [2] = test system: Staphylococcus aureus; experiment: GST (germicidal spray test) AOAC 961.02 micro-efficacy of cleaning compositions; assay type: cell-based; settings: 0.3 wt % alkylated amino acid, balance water, pH about 7, contact time 7 minutes; for GST efficacy in Cleaning Composition 1: 1 wt % lauryl amine oxide, 0.5 wt % butyl levulinate; for GST efficacy in Cleaning Composition 3: 1 wt % alkyl polyglucoside
# Procedure: A number of tests were conducted for Cleaning Compositions 1-3 including different alkylated amino acids as set forth in Tables 1 and 2 as described herein. Tests were conducted using GST (germicidal spray test) testing method AOAC 961.02 for micro-efficacy (i.e., ability to kill bacteria) against Staphylococcus aureus. The contact time in the test method was 7 minutes, and the neutralizer utilized was Letheen Broth+0.07% Lecithin+0.5% Tween 80.
Compound,% at t = 4 w (70° F.) [1] [%],% at t = 8 w (70° F.) [1] [%],% at t = 8 w (100° F.) [1] [%],GST efficacy in Cleaning Composition 1 [2] [%],GST efficacy in Cleaning Composition 2 [2] [%],GST efficacy in Cleaning Composition 3 [2] [%]
CCCCCCCCCCCCNC(CCCNC(=N)N)C(=O)O (stereo not shown) [Example 2],100,100,100,>99.999,>99.999,–
CCCCCCCCCCCCNC(CCCNC(=N)N)C(=O)OCC (stereo not shown) [Example 5],–,–,–,>99.999,>99.999,–
CCCCCCCCCCCCNC(=O)C(N)CCCCN (stereo not shown) [Example 20],97,89,62,>99.999,>99.999,–
CCCCCCCCCCCCNCCCCC(N)C(=O)O (stereo not shown) [Example 22],100,150,146,>99.999,>99.999,–
CCCCCCCCCCCCNCC(=O)OCC [Example 60],8,0,0,>99.999,–,–
CCCCCCCCCCCCNC(=O)CN [Example 62],90,87,59,>99.999,–,>99.999
CCCCCCCCCCCCNC(CC(C)C)C(=O)OCC (stereo not shown) [Example 80],93,85,89,99.99,99.4,–
CCCCCCCCCCCCOC(=O)C(N)CC(C)C (stereo not shown) [Example 81],64,36,5,>99.999,95.3,>99.8
CCCCCCCCCCCCNC(=O)C(C)CC(C)C (stereo not shown) [Example 82],90,100,93,>99.999,–,>99.999
CCCCCCCCCCCCNC(Cc1ccccc1)C(=O)OCC (stereo not shown) [Example 88],93,91,74,99.999,–,–
CCCCCCCCCCCCOC(=O)C(N)Cc1ccccc1 (stereo not shown) [Example 89],82,63,12,99.999,99.5,99.6
CCCCCCCCCCCCNC(=O)C(N)Cc1ccccc1 (stereo not shown) [Example 90],104,101,96,>99.999,–,>99.999
CCCCCCCCCCCCNC(Cc1c[nH]c2ccccc12)C(=O)OCC (stereo not shown) [Example 96],94,87,35,99.999,–,–
CCCCCCCCCCCCNC(=O)C(N)Cc1c[nH]c2ccccc12 (stereo not shown) [Example 98],118,135,121,>99.999,–,99.4

# Second part, led by results:
% at t = 4 w (70° F.) [1] [%],% at t = 8 w (70° F.) [1] [%],% at t = 8 w (100° F.) [1] [%],Compound,GST efficacy in Cleaning Composition 1 [2] [%],GST efficacy in Cleaning Composition 2 [2] [%],GST efficacy in Cleaning Composition 3 [2] [%]
80,71,27,CCCCCCCCCCCC(=O)NC(CCCNC(=N)N)C(=O)OCC (stereo not shown) [Example 1],>99.999,>99.999,–
106,112,81,CCCCCCCCCCCCNC(=O)C(N)CCCNC(=N)N (stereo not shown) [Example 4],>99.999,>99.999,–
88,79,37,CCCCCCCCCCCC(=O)NC(CCCCN)C(=O)OCC (stereo not shown) [Example 16],>99.999,>99.999,–
90,102,102,CCCCCCCCCCCCNC(CCCCN)C(=O)O (stereo not shown) [Example 17],>99.999,>99.999,–
13,4,0,CCCCCCCCCCCC(=O)NCCCCC(N)C(=O)OCC (stereo not shown) [Example 21],>99.999,>99.999,–
0,0,0,CCCCCCCCCCCCOC(=O)CN [Example 61],>99.999,–,>99.8
99,59,57,CCCCCCCCCCCCNC(Cc1ccc(O)cc1)C(=O)OCC (stereo not shown) [Example 92],99.99,–,–
75,56,8,CCCCCCCCCCCCOC(=O)C(N)Cc1ccc(O)cc1 (stereo not shown) [Example 93],>99.999,99.9,99.4
98,94,86,CCCCCCCCCCCCNC(=O)C(N)Cc1ccc(O)cc1 (stereo not shown) [Example 94],>99.999,–,>99.999
92,73,6,CCCCCCCCCCCCOC(=O)C(N)Cc1c[nH]c2ccccc12 (stereo not shown) [Example 97],>99.999,–,–
